Assay results taken from patent US10046050B2, “Targeting immunotherapy for amyloidosis” (UNIVERSITY OF TENNESSEE RESEARCH FOUNDATION, priority 2014, dated 2018).

Assays:
[1] = system: human ATTR amyloid; assay: Immunohistochemistry of biotinyl-7D8 on formalin-fixed tissue sections; assay type: binding; conditions: label = pre-treatment peptide, or 7D8 alone
Protocol: (§1) The binding of biotinylated 7D8 mAb with autopsy-derived, formalin-fixed, paraffin-embedded tissue sections containing, ATTR, ALκ or ALλ was assessed immunohistochemically. Consecutive tissue sections were stained with: Congo red; biotinylated 7D8 alone; 7D8 with the control peptide p5; or, 7D8 mAb with peptope p75 pretreatment. Briefly, six μm-thick tissue sections were subjected to antigen retrieval by incubation in CitraPlus solution (BioGenex, San Ramon, Calif.) for 30 min at 90° C. Unlabeled peptope p75 was added to the tissue at ˜3 μg/mL and incubated overnight at 4° C. Unbound reagent was removed by washing in PBST for 30 min. Tissues sections (with or without peptope pretreatment) were immunostained by addition of 3 μg/mL biotinylated 7D8 mAb. Slides were developed by addition of streptavidin-HRP (Vectastain Elite ABC kit, Vector Labs) followed by 3,3′-diaminobezidene (Vector Labs) and examined using a Leica DM500 microscope.

[2] = system: human Den ALλ amyloid; assay: as above; assay type: binding; conditions: thyroid, label = pre-treatment peptide, or 7D8 alone
Protocol: as §1

[3] = system: human Tal ALκ amyloid; assay: as above; assay type: binding; conditions: kidney, label = pre-treatment peptide, or 7D8 alone
Protocol: as §1

[4] = system: mAb 7D8; assay: ELISA binding of 7D8 to peptopes dried on microplates; conditions: both assays
Protocol: Peptides (p75-78 and control reagents; peptide 39 [CGGHEDT] (SEQ ID NO: 54), peptide 41 [CGGHEDTMADQE] (SEQ ID NO: 55) and peptide p5 (SEQ ID NO: 1), were prepared at 1 μg/ml in PBS and 50 μl was added to each well of 1 96-well microplate (Costar EIA/RIA high binding). The peptides were dried onto the well at 37° C. overnight. Sample wells were blocked for 1 h by addition of 200 μL of 1% BSA in PBS. Primary antibodies (7D8 or biotinylated 7D8) and secondary antibodies (biotinylated goat anti mouse) were added in 100 μL of a diluent of 1% BSA and 0.05% tween 20 in PBS. The 7D8 primary antibody was tested with a 1:2 dilution series beginning at 50 nM. A 1/3000 dilution of the secondary biotinylated goat anti-mouse IgG antibody (Sigma) was added for 1 h and the microplate washed. When the biotinylated 7D8 mAb was used the secondary antibody step was omitted. Binding was visualized by addition of a 1/1000 dilution of europium/streptavidin (Perkin Elmer) for 1 h and developed with enhancement solution (Perkin Elmer) before quantifying the signal using a time-resolved fluorescence plate reader (Wallac).

KAQKAQAKQAKQAQKAQKAQAKQAKQ (KAQKAQAKQAKQAQKAQKAQAKQAKQ; Peptide p5)
immunohistochemical staining with biotinyl-7D8 ([1]; Gre ATTR, esophagus): decreased
immunohistochemical staining with biotinyl-7D8 ([1]; Gre ATTR, heart): partially inhibited
immunohistochemical staining with biotinyl-7D8 ([1]; Ken ATTR, heart): background 7D8 staining was diminished
immunohistochemical staining with biotinyl-7D8 ([1]; Sno ATTR, heart): background 7D8 staining was diminished
immunohistochemical staining with biotinyl-7D8 [2]: inhibited this effect
immunohistochemical staining with biotinyl-7D8 [3]: inhibited this effect
binding of 7D8 and biotinyl-7D8 [4]: no binding
